# Measurements taken from paper PMC12040169 (PLOS Biology, 2025).
# Experiment: in vitro
# Details: human, hela cells, % viability
row,SMILES,"viability at 28.5 h, 10 µM"
1,O=C(Nc1nc(-c2ccc(S(=O)(=O)N3CCCC3)cc2)cs1)C1COc2ccccc2O1 (stereo not drawn) [CBK096353],101%
2,CC(=O)NC(O)C(=O)c1cccs1 (stereo not drawn) [CBK027756],111%
3,COc1ccc(/C=C/C2=CCN(C)CC2)cc1Cn1cccn1 [CBK283859],90.8%
4,COc1cc(/C=N/c2ccc3oc(-c4ccc(C(C)(C)C)cc4)nc3c2)ccc1OC(=O)c1ccc(Cl)cc1Cl [CBK261238],104%
5,CCCC(=O)NC(c1ccccn1)C1CCC(CNC(C)=O)CC1 (stereo not drawn) [CBK283080],102%
6,O=[N+]([O-])c1cccc(S(=O)(=O)NCCCn2ccnc2)c1 [CBK266676],91.1%
7,CN1CCN(CCCNC(=O)N2CCN(c3cc(C(F)(F)F)ccn3)CC2)CC1 [CBK156431],93.7%
8,CCOc1cc(C)c(-c2cc(N)[nH]n2)cc1OCC [CBK288216],85.9%
9,Cc1ccc(OCCNC(=O)NC(=O)C2CCN(C)CC2)c2c1CCC2 [CBK034824],115%
10,Cc1nn(C)c(C)c1CN1CCOC(c2nc(C(C)(C)C)cs2)C1 (stereo not drawn) [CBK304170],85.6%
11,CCCOCCCn1ccc2nc(OC)c(C#N)cc2c1=O [CBK307162],88%
12,O=C(O)/C=C/C(=O)Nc1ccccc1Br [CBK086488],106%
13,CCSc1nc(-c2ccncc2)ccc1C#N [CBK288539],75.2%
14,Cc1cccn2cc(C(=O)NCCCn3cccn3)nc12 [CBK281749],75.3%
15,O=C(O)Cc1sc(-c2ccc(Cl)cc2)nc1O [CBK067730],93.1%
16,O=C(CSc1ccc(Cl)cc1)Nc1cc(Cl)ccc1C(=O)O [CBK264217],115%
17,Cc1cnn(C2(C(=O)O)CCN(C(=O)c3cccc(C#N)c3)CC2)c1 [CBK307058],102%
18,COC(C)(C)C(=O)N1CCC2(C/C=C/Cc3ccccc3OCC(=O)NCCNC2=O)CC1 [CBK292001],105%
19,Nc1nc2cccnc2cc1-c1ccc2c(c1)OCCCO2 [CBK081201],97.7%
20,COc1ccc(C(CC(=O)O)CC(=O)O)cc1OC [CBK263545],91.9%
21,CCOC(=O)CCNC(=O)N(CC)Cc1ccccc1 [CBK155228],88.7%
22,O=C(/C=C/c1cn(-c2ccccc2)nc1-c1cc2ccccc2oc1=O)NCc1ccccc1 [CBK266530],100%
23,COCCNc1nccnc1-c1cccnc1 [CBK037376],102%

row,SMILES,"viability at 28.5 h, 10 µM"
1,CC(C)N1CCC(=NNC(=O)C(O)c2ccccc2)CC1 (stereo not drawn) [CBK019361],110%
2,CCn1c(COc2cccc3cccnc23)nnc1SCC(=O)c1ccc(F)cc1 [CBK265656],86.8%
3,Cc1nc(O)cc(CCn2cc(-c3cncnc3)nn2)n1 [CBK306712],96.2%
4,COc1ccc(OCc2nc(-c3cccs3)no2)cc1 [CBK269782],91.7%
5,O=C(c1cccc(-c2cncc(-c3ccc(O)cc3)n2)c1)N1CCOCC1 [CBK123796],100%
6,CN(C)C(=O)c1cc(-c2ccco2)cnc1NS(C)(=O)=O [CBK076490],116%
7,O=C(OCC#CCSc1nnc(-c2ccccc2)o1)c1ccc([N+](=O)[O-])cc1 [CBK265588],107%
8,C[C@H](c1ccccc1)n1c(=O)[nH]c2ncc(-c3ccc(C(=O)N4CCN(C)CC4)cc3)nc21 [CBK064559],101%
9,CC(=O)Nc1ccc(S(=O)(=O)N2CCN(S(=O)(=O)N(C)C)CC2)cc1 [CBK266545],95.9%
10,Cc1ccc2c(c1)cc(C)c1nn(CC(=O)NC3CC3)c(=O)n12 [CBK283873],99.2%
11,O=C(NCCN1CCN(Cc2ccccc2Cl)CC1)Nc1ccccc1 [CBK268039],93.4%
12,Cc1ccc2c(c1)C(Oc1cncc(N3CCNCC3)n1)CCO2 (stereo not drawn) [CBK172334G],99.7%
13,O=C(N[C@H]1C[C@H]2C(=O)Nc3ccccc3C(=O)N2C1)c1ccccc1 [CBK289354],103%
14,COc1ccc(CNC(=O)N(C)C2CCN(C)C2)cc1OC (stereo not drawn) [CBK156020],97.6%
15,O=C(Cn1cccn1)Nc1ccc2c(c1)CN(Cc1ccccc1)C2 [CBK281829],85.6%
16,Cc1ccc(N(CC(=O)N/N=C/C(C)C)S(=O)(=O)c2ccccc2)c(C)c1 [CBK262397],92.5%
17,CCNC(=O)c1ccc(-c2ccc(C(=O)N(C)C)cc2)nc1 [CBK158361],91.7%
18,Cc1ccc(C(C)C)c(OCC(=O)NS(=O)(=O)c2ccc(Br)cc2)c1 [CBK268719],101%
19,CCCc1nn(CC(=O)N(CC)CC)c(=O)c2cc3ccsc3n12 [CBK284192],81.3%
20,CN(C)c1nc(NC2CC2)nc(Oc2ccc(=O)n(-c3ccccc3)n2)n1 [CBK270187],93.9%
21,CC(CNC(=O)COc1cc(Cl)c(Cl)cc1Cl)CN(C)C (stereo not drawn) [CBK266766],88.1%
22,C=CCn1nnc(NC(=O)COc2ccccc2)n1 [CBK288131],108%
